{
  "source": "the supplement of paper PMC10307832",
  "assay_in_all_cases": "relative viability (nuclei count vs DMSO), 5 days (fraction); higher = more cells survive",
  "key": {"[1]": {"compound": "CN(NC(=O)CC(=O)NN(C)C(=S)c1ccccc1)C(=S)c1ccccc1 [Elesclomol]", "method_in_brief": "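Hoechst staining, done together with fixation and permeabilisation, marked nuclei for 4× imaging and MetaXpress counting. This followed 5 days without medium change after lung cancer cell lines, kept overnight at 37 °C in 1536-well plates, were pinned with five library-drug doses (not always all listed) spaced by √10 on vehicle-anchored plates. Viability is the ratio of treated-well to vehicle-well nuclei, expressed as a median across plates. Plates passed only at control CV below 25% with at least one doubling.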"}, "[2]": {"compound": "CN(NC(=O)CC(=O)NN(C)C(=S)c1ccccc1)C(=S)c1ccccc1 [Elesclomol] + O=C(c1cc(Cc2n[nH]c(=O)c3ccccc23)ccc1F)N1CCN(C(=O)C2CC2)CC1 [Olaparib] (partner 8 µM)", "method_in_brief": "(§1)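 One day after seeding in 1536-well plates, lung cancer cell lines were dosed by pin tool. Dosing was either single-drug or a fixed anchor-drug dose plus five library-drug doses (not always all listed) in √10 steps. After 5 days, nuclei were stained in one fix-and-stain step and counted on 4× images, and relative viability is the nuclei count of treated wells over that of vehicle wells, given as the median of duplicate plates.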"}, "[3]": {"compound": "CN(NC(=O)CC(=O)NN(C)C(=S)c1ccccc1)C(=S)c1ccccc1 [Elesclomol] + CS(=O)(=O)N1CCN(Cc2cc3nc(-c4cccc5[nH]ncc45)nc(N4CCOCC4)c3s2)CC1 [Pictilisib] (partner 1 µM)", "method_in_brief": "as §1"}, "[4]": {"compound": "CN(NC(=O)CC(=O)NN(C)C(=S)c1ccccc1)C(=S)c1ccccc1 [Elesclomol] + COc1cc2c(Oc3ccc(NC(=O)C4(C(=O)Nc5ccc(F)cc5)CC4)cc3F)ccnc2cc1OCCCN1CCOCC1 [Foretinib] (partner 0.25 µM)", "method_in_brief": "as §1"}, "[5]": {"compound": "CN(NC(=O)CC(=O)NN(C)C(=S)c1ccccc1)C(=S)c1ccccc1 [Elesclomol] + CC1(C)CCC(c2ccc(Cl)cc2)=C(CN2CCN(c3ccc(C(=O)NS(=O)(=O)c4ccc(N[C@H](CCN5CCOCC5)CSc5ccccc5)c(S(=O)(=O)C(F)(F)F)c4)cc3)CC2)C1 [Navitoclax] (partner 0.5 µM)", "method_in_brief": "as §1"}, "[6]": {"compound": "CN(NC(=O)CC(=O)NN(C)C(=S)c1ccccc1)C(=S)c1ccccc1 [Elesclomol] + CS(=O)(=O)CCNCc1ccc(-c2ccc3ncnc(Nc4ccc(OCc5cccc(F)c5)c(Cl)c4)c3c2)o1 [Lapatinib] (partner 2 µM)", "method_in_brief": "as §1"}, "[7]": {"compound": "CN(NC(=O)CC(=O)NN(C)C(=S)c1ccccc1)C(=S)c1ccccc1 [Elesclomol] + Cc1nc(NC(=O)N2CCC[C@H]2C(N)=O)sc1-c1ccnc(C(C)(C)C(F)(F)F)c1 [Alpelisib] (partner 2 µM)", "method_in_brief": "as §1"}, "[8]": {"compound": "CN(NC(=O)CC(=O)NN(C)C(=S)c1ccccc1)C(=S)c1ccccc1 [Elesclomol] + C[C@]1(O)C[C@@H](c2nc(-c3ccc4ccc(-c5ccccc5)nc4c3)c3c(N)nccn32)C1 [Linsitinib] (partner 1 µM)", "method_in_brief": "as §1"}, "[9]": {"compound": "CN(NC(=O)CC(=O)NN(C)C(=S)c1ccccc1)C(=S)c1ccccc1 [Elesclomol] + CC(C)C[C@H](NC(=O)[C@H](Cc1ccccc1)NC(=O)c1cnccn1)B(O)O [Bortezomib] (partner 0.002 µM)", "method_in_brief": "as §1"}, "[10]": {"compound": "CN(NC(=O)CC(=O)NN(C)C(=S)c1ccccc1)C(=S)c1ccccc1 [Elesclomol] + C[C@@H](Oc1cc(-c2cnn(C3CCNCC3)c2)cnc1N)c1c(Cl)ccc(F)c1Cl [Crizotinib] (partner 1 µM)", "method_in_brief": "as §1"}},
  "data": [
    {"cell line": "NCI-H1299", "values": [
      {"measurement": "relative viability", "setting": "[1]; 0.003162 µM", "result": 1.03},
      {"measurement": "relative viability", "setting": "[1]; 0.01 µM", "result": 0.733},
      {"measurement": "relative viability", "setting": "[1]; 0.03162 µM", "result": 0.709},
      {"measurement": "relative viability", "setting": "[1]; 0.1 µM", "result": 0.42},
      {"measurement": "relative viability", "setting": "[2]; first compound 0.003162 µM", "result": 0.991},
      {"measurement": "relative viability", "setting": "[2]; first compound 0.01 µM", "result": 0.574},
      {"measurement": "relative viability", "setting": "[2]; first compound 0.03162 µM", "result": 0.401},
      {"measurement": "relative viability", "setting": "[2]; first compound 0.1 µM", "result": 0.146},
      {"measurement": "relative viability", "setting": "[3]; first compound 0.003162 µM", "result": 0.743},
      {"measurement": "relative viability", "setting": "[3]; first compound 0.01 µM", "result": 0.171},
      {"measurement": "relative viability", "setting": "[3]; first compound 0.03162 µM", "result": 0.134},
      {"measurement": "relative viability", "setting": "[3]; first compound 0.1 µM", "result": 0.0529},
      {"measurement": "relative viability", "setting": "[4]; first compound 0.003162 µM", "result": 1.04},
      {"measurement": "relative viability", "setting": "[4]; first compound 0.01 µM", "result": 1.06},
      {"measurement": "relative viability", "setting": "[4]; first compound 0.03162 µM", "result": 0.588},
      {"measurement": "relative viability", "setting": "[4]; first compound 0.1 µM", "result": 0.333},
      {"measurement": "relative viability", "setting": "[5]; first compound 0.003162 µM", "result": 1.05},
      {"measurement": "relative viability", "setting": "[5]; first compound 0.01 µM", "result": 0.97},
      {"measurement": "relative viability", "setting": "[5]; first compound 0.03162 µM", "result": 0.932},
      {"measurement": "relative viability", "setting": "[5]; first compound 0.1 µM", "result": 0.661},
      {"measurement": "relative viability", "setting": "[6]; first compound 0.003162 µM", "result": 0.947},
      {"measurement": "relative viability", "setting": "[6]; first compound 0.01 µM", "result": 0.852},
      {"measurement": "relative viability", "setting": "[6]; first compound 0.03162 µM", "result": 0.698},
      {"measurement": "relative viability", "setting": "[6]; first compound 0.1 µM", "result": 0.547},
      {"measurement": "relative viability", "setting": "[7]; first compound 0.003162 µM", "result": 1.08},
      {"measurement": "relative viability", "setting": "[7]; first compound 0.01 µM", "result": 1.05},
      {"measurement": "relative viability", "setting": "[7]; first compound 0.03162 µM", "result": 0.918},
      {"measurement": "relative viability", "setting": "[7]; first compound 0.1 µM", "result": 0.636},
      {"measurement": "relative viability", "setting": "[8]; first compound 0.003162 µM", "result": 0.994},
      {"measurement": "relative viability", "setting": "[8]; first compound 0.01 µM", "result": 0.677},
      {"measurement": "relative viability", "setting": "[8]; first compound 0.03162 µM", "result": 0.549},
      {"measurement": "relative viability", "setting": "[8]; first compound 0.1 µM", "result": 0.145},
      {"measurement": "relative viability", "setting": "[9]; first compound 0.003162 µM", "result": 1.03},
      {"measurement": "relative viability", "setting": "[9]; first compound 0.01 µM", "result": 0.921},
      {"measurement": "relative viability", "setting": "[9]; first compound 0.03162 µM", "result": 0.834},
      {"measurement": "relative viability", "setting": "[9]; first compound 0.1 µM", "result": 0.622},
      {"measurement": "relative viability", "setting": "[10]; first compound 0.003162 µM", "result": 0.613},
      {"measurement": "relative viability", "setting": "[10]; first compound 0.01 µM", "result": 0.822},
      {"measurement": "relative viability", "setting": "[10]; first compound 0.03162 µM", "result": 0.698},
      {"measurement": "relative viability", "setting": "[10]; first compound 0.1 µM", "result": 0.507}
    ]}
  ]
}
